Experimental findings from ChEMBL document CHEMBL1201862, “PubChem BioAssay data set” (2004) are described below.

Test systems include HCT-15; COLO 205; SK-OV-3; UACC-62; CAKI-1; OVCAR-5; SNB-75; SK-MEL-28; SW-620; NCI-H23; OVCAR-8; SK-MEL-2; SF-539; A498; NCI-H522; NCI-H226.
Holding throughout (assay): NCI tumour cell line growth inhibition, 48 h

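Assay format: 96-well plates, 48-hour exposure. GI50 marks 50% less growth.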 The source made the active and inactive calls. No stated cut-off is given here; in the data, active = GI50 up to about 1.1 µM and inactive = higher.

Regarding `COc1ccc(C2=C(Cl)c3cc(OC)c(OC)cc3C2Cl)cc1OC` (configuration not stated), the GI50 in the experiment with HCT-15 is 18.2 µM; with COLO 205, 18.3 µM (inactive); in the experiment on SK-OV-3, 32.1 µM (inactive); with UACC-62, 15.4 µM (inactive); in the experiment on CAKI-1, 14.7 µM (inactive); with OVCAR-5 it was 16.3 µM (inactive). Further, the GI50 is 13.6 µM (inactive) in the experiment on SNB-75; 17 µM (inactive) with SK-MEL-28; 15.2 µM (inactive) with SW-620; 15.9 µM (inactive) with NCI-H23; 15.4 µM (inactive) in the experiment on OVCAR-8.
In the case of `CC(=O)N1c2ccccc2C2=CC3C4C(=O)N(c5ccccc5)C(=O)C4C21C1C(=O)N(c2ccccc2)C(=O)C31` (configuration not stated), the GI50 was 17.1 µM with HCT-15; 17.3 µM (inactive) in the experiment on SK-MEL-2; 2.61 µM (inactive) with SF-539; 59.7 µM (inactive) with COLO 205; 74.5 µM (inactive) in the experiment on A498; 23.1 µM (inactive) in the experiment on SK-OV-3. Besides, the GI50 in the experiment on UACC-62 was 30.6 µM (inactive); in the experiment with CAKI-1, 48.3 µM (inactive); in the experiment on OVCAR-5 it was 55.1 µM (inactive); in the experiment on SNB-75, 31.1 µM (inactive); in the experiment with SK-MEL-28 it was > 100 µM (inactive); in the experiment on SW-620 it was 31.2 µM (inactive). For the same compound, the GI50 is 48.2 µM (inactive) with NCI-H23 and 23.1 µM (inactive) in the experiment on OVCAR-8.
As to `COc1cc(CNc2nc3ccc(C(F)(F)F)cc3nc2-c2ccccc2)cc(OC)c1OC`, the GI50 in the experiment with HCT-15 was 25.4 µM; with SK-MEL-2, 20.9 µM (inactive); in the experiment with SF-539 it was 46.7 µM (inactive); with COLO 205, 38.5 µM (inactive); with A498, 38.2 µM (inactive); in the experiment with SK-OV-3, 7.18 µM (inactive). In addition, the GI50 was 93.1 µM (inactive) in the experiment on UACC-62; 14.3 µM (inactive) in the experiment on CAKI-1; 11.5 µM (inactive) in the experiment on NCI-H522; > 100 µM (inactive) in the experiment with OVCAR-5; 8.38 µM (inactive) in the experiment with SNB-75; 55.3 µM (inactive) in the experiment on SK-MEL-28. Moreover, the GI50 in the experiment on SW-620 was 21 µM (inactive); with NCI-H23 it was 27.9 µM (inactive); in the experiment on OVCAR-8, 47.5 µM (inactive).
In the case of `COc1cc(Br)c(C2OCCCO2)cc1OCc1ccccc1`, the GI50 with HCT-15 is 61.1 µM; with SK-MEL-2, > 100 µM (inactive); with SF-539, 73.1 µM (inactive); with COLO 205, > 100 µM (inactive); in the experiment with A498, > 100 µM (inactive); with SK-OV-3, > 100 µM (inactive). Besides, the GI50 in the experiment with UACC-62 is 73.5 µM (inactive); with NCI-H522, 66.1 µM (inactive); in the experiment on OVCAR-5, > 100 µM (inactive); in the experiment with SNB-75, > 100 µM (inactive); in the experiment with SK-MEL-28 it was 60.3 µM (inactive); in the experiment on NCI-H226, 17.5 µM (inactive). In addition, the GI50 in the experiment with SW-620 was > 100 µM (inactive); in the experiment on NCI-H23, 85.5 µM (inactive); in the experiment on OVCAR-8, > 100 µM (inactive).
In the case of `O=C1c2ccncc2C(=O)c2c(O)ccc(O)c21`, the GI50 with HCT-15 is 4.52 µM; in the experiment on SK-MEL-2, 8.05 µM (inactive); in the experiment with SF-539, 3.89 µM (inactive); in the experiment on COLO 205 it was 3.72 µM (inactive); in the experiment with A498, 19 µM (inactive); in the experiment with UACC-62, 3.12 µM (inactive). For the same compound, the GI50 with CAKI-1 was > 10 µM (inactive); with OVCAR-5, 16 µM (inactive); with SNB-75, 23.6 µM (inactive); in the experiment on SK-MEL-28, 11.9 µM (inactive); in the experiment with NCI-H226 it was 15.7 µM (inactive); in the experiment with SW-620, 2.89 µM (inactive). In the experiment on OVCAR-8, the GI50 is 9.64 µM (inactive).
Regarding `O=C(NCCCN1CCN(CCCNC(=O)c2cnc3ccccc3n2)CC1)c1cnc2ccccc2n1`, the GI50 in the experiment with HCT-15 is greater than 100 µM; in the experiment with SK-MEL-2 it was > 100 µM (inactive); with SF-539, > 100 µM (inactive); with COLO 205, > 100 µM (inactive); with A498 it was 82 µM (inactive); in the experiment with SK-OV-3 it was > 100 µM (inactive). In addition, the GI50 in the experiment on UACC-62 was > 100 µM (inactive); in the experiment with CAKI-1, > 100 µM (inactive); in the experiment with NCI-H522, 90.8 µM (inactive); in the experiment with SNB-75 it was > 100 µM (inactive); in the experiment with SK-MEL-28, > 100 µM (inactive); with NCI-H226 it was 86.5 µM (inactive). Besides, the GI50 in the experiment with SW-620 and with OVCAR-8 was > 100 µM (inactive) in each case.
As to `COc1ccc(C(C#N)NNc2nc(C)cc(O)n2)cc1OC` (configuration not stated), the GI50 with HCT-15 is greater than 100 µM; in the experiment with SK-MEL-2, > 100 µM (inactive); with SF-539 it was > 100 µM (inactive); in the experiment with COLO 205 it was > 100 µM (inactive); with SK-OV-3 it was > 100 µM (inactive); with UACC-62, > 100 µM (inactive). In addition, the GI50 was > 100 µM (inactive) in the experiment with CAKI-1; > 100 µM (inactive) in the experiment with NCI-H522; > 100 µM (inactive) with OVCAR-5; 71.9 µM (inactive) in the experiment with SNB-75; > 100 µM (inactive) in the experiment on SK-MEL-28; > 100 µM (inactive) in the experiment with NCI-H226. The GI50 in the experiment with SW-620, in the experiment on NCI-H23 and with OVCAR-8 was > 100 µM (inactive) throughout.
In the case of `COc1cc(NS(C)(=O)=O)ccc1NCc1c2ccccc2nc2ccccc12`, the GI50 in the experiment on HCT-15 is 21.7 µM; with SK-MEL-2 it was 44.4 µM (inactive); with SF-539, 24.3 µM (inactive); with COLO 205, 70.1 µM (inactive); in the experiment on SK-OV-3, > 100 µM (inactive); in the experiment on UACC-62, > 100 µM (inactive). In addition, the GI50 was 21.7 µM (inactive) in the experiment on CAKI-1; 24.3 µM (inactive) in the experiment with NCI-H522; > 100 µM (inactive) in the experiment with OVCAR-5; > 100 µM (inactive) with SNB-75; 49.7 µM (inactive) with SK-MEL-28; > 100 µM (inactive) with NCI-H226. The GI50 is 26.7 µM (inactive) with SW-620, 31 µM (inactive) in the experiment with NCI-H23 and 30.9 µM (inactive) with OVCAR-8.
For `O=C1N/C(=C\[N+](=O)[O-])c2ccccc21`, the GI50 in the experiment on HCT-15 was greater than 100 µM; with SF-539 it was > 100 µM (inactive); in the experiment with COLO 205, > 100 µM (inactive); in the experiment on A498 it was > 100 µM (inactive); with SK-OV-3 it was > 100 µM (inactive); in the experiment with UACC-62, > 100 µM (inactive). Besides, the GI50 was > 100 µM (inactive) in the experiment with NCI-H522; > 100 µM (inactive) with OVCAR-5; 25.9 µM (inactive) in the experiment on SNB-75; > 100 µM (inactive) with SK-MEL-28; > 100 µM (inactive) in the experiment on NCI-H226; > 100 µM (inactive) in the experiment on SW-620. The GI50 in the experiment with NCI-H23 and in the experiment with OVCAR-8 was > 100 µM (inactive) throughout.
For `CCCN(CCCCC(NC(C)=O)C(=O)NCc1ccccc1)C(=O)NCCCl` (configuration not stated), the GI50 was greater than 100 µM in the experiment on HCT-15; > 100 µM (inactive) in the experiment on SF-539; > 100 µM (inactive) in the experiment with COLO 205; > 100 µM (inactive) with UACC-62; > 100 µM (inactive) with CAKI-1; > 100 µM (inactive) with NCI-H522. Also, the GI50 in the experiment with SNB-75, in the experiment on SK-MEL-28, in the experiment with NCI-H226, in the experiment with SW-620, with NCI-H23 and with OVCAR-8 was > 100 µM (inactive) in each case.
As to `COc1cc2cc3c4c(cc(OC)c(OC)c4c2cc1OC)CCN3C(=O)CCC(=O)NCCCN(C)C`, the GI50 in the experiment with HCT-15 was greater than 100 µM; in the experiment on SK-MEL-2 it was 20.1 µM (inactive); in the experiment with SF-539 it was 18.8 µM (inactive); in the experiment with COLO 205 it was 32.6 µM (inactive); in the experiment on SK-OV-3, 46.2 µM (inactive); with UACC-62, 47.6 µM (inactive). The GI50 was > 100 µM (inactive) in the experiment on CAKI-1; 21.8 µM (inactive) in the experiment with NCI-H522; 10.3 µM (inactive) in the experiment on SNB-75; 38.4 µM (inactive) with SK-MEL-28; 66.8 µM (inactive) in the experiment with NCI-H226; 54 µM (inactive) in the experiment on SW-620. Besides, the GI50 in the experiment with NCI-H23 and with OVCAR-8 was > 100 µM (inactive) in each case.
Regarding `CC(=O)O[C@H]1CCC2[C@@H]3CCC4Nc5c(cnn5-c5ccccc5)C[C@]4(C)C3CC[C@@]21C` (some centres not stated), the GI50 with HCT-15 is 13.2 µM; in the experiment on SK-MEL-2, 17.1 µM (inactive); with SF-539, 17.5 µM (inactive); with COLO 205, 14.5 µM (inactive); in the experiment on A498, 30.5 µM (inactive); in the experiment on SK-OV-3, 18.7 µM (inactive). Besides, the GI50 with UACC-62 was 10.4 µM (inactive); in the experiment on CAKI-1, 3.2 µM (inactive); in the experiment with NCI-H522, 14.7 µM (inactive); in the experiment with OVCAR-5, 17.4 µM (inactive); with SNB-75, 4.01 µM (inactive); in the experiment on NCI-H226, 11.5 µM (inactive). Besides, the GI50 in the experiment with SW-620 was 11.9 µM (inactive); in the experiment on NCI-H23 it was 4.83 µM (inactive); in the experiment with OVCAR-8, 18.2 µM (inactive).
Regarding `CC1CCC2(C)C(CC=C(C=O)C2(O)C=O)C12CO2` (configuration not stated), the GI50 with HCT-15 is 2.14 µM; in the experiment with SK-MEL-2, 2.52 µM (inactive); in the experiment on SF-539, 2.19 µM (inactive); with COLO 205, 1.33 µM (inactive); in the experiment with A498 it was 6.7 µM (inactive); in the experiment on SK-OV-3, 3.27 µM (inactive). The GI50 in the experiment with UACC-62 is 1.64 µM (inactive); in the experiment with CAKI-1, 2.96 µM (inactive); with NCI-H522 it was 2.31 µM (inactive); with OVCAR-5 it was 2.73 µM (inactive); in the experiment with SK-MEL-28, 1.79 µM (inactive); with NCI-H226, 0.665 µM (active). The GI50 in the experiment with SW-620 was 2.36 µM (inactive); with NCI-H23, 2.25 µM (inactive); with OVCAR-8 it was 2.22 µM (inactive).
In the case of `CCc1ccccc1-n1c2nc(=O)n(C)c(=O)c-2nc2ccccc21`, the GI50 in the experiment on HCT-15 was 10 µM; in the experiment with SK-MEL-2, 17.4 µM (inactive); in the experiment on SF-539 it was 14.1 µM (inactive); in the experiment on COLO 205, 2.77 µM (inactive); in the experiment on A498, 15.9 µM (inactive); with SK-OV-3, 40.2 µM (inactive). Besides, the GI50 in the experiment with UACC-62 was 2.2 µM (inactive); in the experiment on CAKI-1, 20 µM (inactive); in the experiment on NCI-H522 it was 13.6 µM (inactive); with OVCAR-5, 20 µM (inactive); with SNB-75, 14.2 µM (inactive); in the experiment with NCI-H226 it was 18.4 µM (inactive). Further, the values for the GI50 in the experiment with SW-620, in the experiment on NCI-H23 and in the experiment with OVCAR-8 were 13.8 µM (inactive), 4.03 µM (inactive) and 5.96 µM (inactive), respectively.
